# Measurements taken from patent publication US20240409585A1, “MACROCYCLIC IMMUNOMODULATORS” (priority 2021, published 2024).
# Bridge positions count the residues as written; N and C are the ends. Square brackets hold non-standard residues; d marks the D form. Peptide text beside a SMILES is read from it. * marks the point of attachment. ξ: configuration not given here. Tyr(3-NO2) = N[C@@H](Cc1ccc(O)c([N+](=O)[O-])c1)C(=O)O; Phe(4-COOH) = N[C@@H](Cc1ccc(C(=O)O)cc1)C(=O)O; Bip = N[C@@H](Cc1ccc(-c2ccccc2)cc1)C(=O)O; Phe(3-Cl) = N[C@@H](Cc1cccc(Cl)c1)C(=O)O; Phe(3-OMe) = COc1cccc(C[C@H](N)C(=O)O)c1; Phe(3-Me) = Cc1cccc(C[C@H](N)C(=O)O)c1; Val(3-OH) = CC(C)(O)[C@H](N)C(=O)O; aIle = CC[C@@H](C)[C@H](N)C(=O)O; 4Pal = N[C@@H](Cc1ccncc1)C(=O)O; Cha = N[C@@H](CC1CCCCC1)C(=O)O; Thr(3ξ) = CC(O)[C@H](N)C(=O)O; Ala(CN) = N#CC[C@H](N)C(=O)O; Tle = CC(C)(C)[C@H](N)C(=O)O; Pip = O=C(O)[C@@H]1CCCCN1; Carboxymethyl = O=C(O)C*; NMeA = CN[C@@H](C)C(=O)O; Orn = NCCC[C@H](N)C(=O)O; Dab = NCC[C@H](N)C(=O)O; Dap = NC[C@H](N)C(=O)O; ξV = CC(C)C(N)C(=O)O
# Target: T1, PE-labeled human PD-L1-Ig binding to Jurkat cell line over-expressing human PD-1 (Jurkat-PD-1) (Homo sapiens, UniProt Q15116)
# T1 construct: expressed in transfected cells; host or cells: Jurkat
# T1 sequence (Q15116 25-288): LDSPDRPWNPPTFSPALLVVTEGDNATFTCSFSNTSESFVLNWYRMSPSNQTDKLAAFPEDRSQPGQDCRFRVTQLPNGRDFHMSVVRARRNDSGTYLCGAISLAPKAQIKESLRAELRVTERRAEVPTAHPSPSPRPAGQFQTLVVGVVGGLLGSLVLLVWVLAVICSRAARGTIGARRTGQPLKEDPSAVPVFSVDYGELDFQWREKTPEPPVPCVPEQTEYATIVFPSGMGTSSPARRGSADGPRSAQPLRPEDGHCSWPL
# Test: Jurkat-PD-1 Cell Binding High-Content Screening Assay (CBA): Method 1
# Conditions: Jurkat-hPD-1 cells, PE-labeled PD-L1-Ig 20 nM final; read-out: Jurkat HPDL1 PD1 IC50 (uM) (Method 1)
row,Structure (SMILES),IC50
1,CC(C)C[C@@H]1NC(=O)[C@H](Cc2c[nH]c3ccccc23)NC(=O)[C@H](CC(=O)O)NC(=O)[C@H](Cc2ccc(OCC(=O)O)cc2)NC(=O)[C@H](Cc2ccncc2)NC(=O)CSC[C@@H](C(=O)N[C@@H](C)C(N)=O)NC(=O)[C@H](CO)NC(=O)[C@H](C(C)C)NC(=O)[C@H](CC(C)C)NC(=O)[C@H](CC(N)=O)NC(=O)[C@@H](C)NC(=O)[C@H](C)N(C)C(=O)[C@H](C(C)C)NC(=O)[C@H](Cc2ccc(-c3ccccc3)cc2)NC1=O [Compound 1563] ({CH2CO}-[4Pal]Y(Carboxymethyl)DWL[Bip]V[NMeA][dA]NLVSCA-NH2; thioether N-14),0.02 µM
2,CC(C)C[C@@H]1NC(=O)[C@H](Cc2c[nH]c3ccccc23)NC(=O)[C@H](CC(=O)O)NC(=O)[C@H](Cc2ccc(C(=O)O)cc2)NC(=O)[C@H](Cc2ccc(OCC(=O)O)cc2)NC(=O)CSC[C@@H](C(=O)N[C@@H](CC(N)=O)C(N)=O)NC(=O)[C@H](CO)NC(=O)[C@H](C(C)(C)C)NC(=O)[C@H](CC2CCCCC2)NC(=O)[C@H](CCN)NC(=O)[C@@H](CC(C)C)NC(=O)[C@H](C)N(C)C(=O)[C@H](C(C)C)NC(=O)[C@H](Cc2ccc(-c3ccccc3)cc2)NC1=O [Compound 1914] ({CH2CO}-Y(Carboxymethyl)[Phe(4-COOH)]DWL[Bip]V[NMeA][dL][Dab][Cha][Tle]SCN-NH2; thioether N-14),0.01 µM
3,CC[C@@H](C)[C@@H]1NC(=O)[C@H](Cc2ccc(-c3ccccc3)cc2)NC(=O)[C@H](CC#N)NC(=O)[C@H](Cc2c[nH]c3ccccc23)NC(=O)[C@H](CC(=O)O)NC(=O)[C@H](Cc2ccc(C(=O)O)cc2)NC(=O)[C@H](Cc2ccc(OCC(=O)O)cc2)NC(=O)CSC[C@@H](C(=O)N[C@@H](CCCCN)C(N)=O)NC(=O)[C@H](CO)NC(=O)C(C(C)C)NC(=O)[C@H](CC(C)C)NC(=O)[C@H](CC(N)=O)NC(=O)[C@@H](CC(C)C)NC(=O)[C@H](C)N(C)C1=O (stereo partly drawn) [Compound 2102] ({CH2CO}-Y(Carboxymethyl)[Phe(4-COOH)]DW[Ala(CN)][Bip][aIle][NMeA][dL]NL[ξV]SCK-NH2; thioether N-14),0.19 µM
4,CC(C)C[C@H]1NC(=O)[C@H](C)N(C)C(=O)[C@H](CCC(=O)O)NC(=O)[C@H](Cc2ccc(-c3ccccc3)cc2)NC(=O)[C@H](C(C)C)NC(=O)[C@H](Cc2c[nH]c3ccccc23)NC(=O)[C@H](CC(=O)O)NC(=O)[C@H](Cc2ccc(OCC(=O)O)cc2)NC(=O)[C@H](CC(N)=O)NC(=O)CSC[C@@H](C(=O)NCC(N)=O)NC(=O)[C@H](C(C)O)NC(=O)[C@H](C(C)C)NC(=O)[C@H](CC2CCCCC2)NC(=O)[C@H](CCN)NC1=O (stereo partly drawn) [Compound 2085] ({CH2CO}-NY(Carboxymethyl)DWV[Bip]E[NMeA][dL][Dab][Cha]V[Thr(3ξ)]CG-NH2; thioether N-14),0.01 µM
5,CC(C)C[C@@H]1NC(=O)[C@H](CCCNC(=N)N)NC(=O)[C@H](Cc2cccc(Cl)c2)NC(=O)[C@H](C)N(C)C(=O)[C@H](CCCNC(=N)N)NC(=O)[C@H](Cc2ccc(-c3ccccc3)cc2)NC(=O)[C@H](C(C)C)NC(=O)[C@H](Cc2c[nH]c3ccccc23)NC(=O)[C@H](CC(=O)O)NC(=O)[C@H](Cc2ccc(O)cc2)NC(=O)[C@H](Cc2ccccc2)NC(=O)CSC[C@@H](C(=O)NCC(N)=O)NC(=O)[C@H](CO)NC(=O)[C@H](C(C)C)NC1=O [Compound 1014] ({CH2CO}-FYDWV[Bip]R[NMeA][Phe(3-Cl)]RLVSCG-NH2; thioether N-14),0.2 µM
6,CC(C)C[C@@H]1NC(=O)[C@H](Cc2c[nH]c3ccccc23)NC(=O)[C@H](CC(=O)O)NC(=O)[C@H](Cc2ccc(C(=O)O)cc2)NC(=O)[C@H](Cc2ccc(OCC(=O)O)cc2)NC(=O)CSC[C@@H](C(=O)N[C@@H](CC(N)=O)C(N)=O)NC(=O)[C@H](CO)NC(=O)[C@H](C(C)(C)O)NC(=O)[C@H](CC2CCCCC2)NC(=O)[C@H](CCN)NC(=O)[C@@H](CC(C)C)NC(=O)[C@H](C)N(C)C(=O)[C@H](C(C)C)NC(=O)[C@H](Cc2ccc(-c3ccccc3)cc2)NC1=O [Compound 1915] ({CH2CO}-Y(Carboxymethyl)[Phe(4-COOH)]DWL[Bip]V[NMeA][dL][Dab][Cha][Val(3-OH)]SCN-NH2; thioether N-14),0.01 µM
7,Cc1cccc(C[C@@H]2NC(=O)[C@H](CC(=O)O)NC(=O)[C@H](Cc3ccc(OCC(=O)O)cc3)NC(=O)[C@H]([C@@H](C)O)NC(=O)CSC[C@@H](C(N)=O)NC(=O)[C@H](CCCN)NC(=O)[C@H](C(C)C)NC(=O)[C@H](CC3CCCCC3)NC(=O)[C@H](CC(N)=O)NC(=O)[C@@H](CC(C)C)NC(=O)[C@H](C)N(C)C(=O)[C@H](Cc3ccc(OCC(=O)O)cc3)NC(=O)[C@H](Cc3ccc(-c4ccccc4)cc3)NC(=O)[C@H](Cc3ccc(OCC(=O)O)cc3)NC2=O)c1 [Compound 1680] ({CH2CO}-TY(Carboxymethyl)D[Phe(3-Me)]Y(Carboxymethyl)[Bip]Y(Carboxymethyl)[NMeA][dL]N[Cha]V[Orn]C-NH2; thioether N-14),0.17 µM

# Other lines, results leading:
row,IC50,Structure (SMILES)
1,0.07 µM,COc1cccc(C[C@@H]2NC(=O)[C@H](CN)NC(=O)CSC[C@@H](C(=O)N[C@@H](C)C(N)=O)NC(=O)[C@H]([C@@H](C)O)NC(=O)[C@H](C(C)C)NC(=O)[C@H](CC(C)C)NC(=O)[C@H](CCN)NC(=O)[C@@H](CC(C)C)NC(=O)[C@H](C)N(C)C(=O)[C@H](Cc3cnc[nH]3)NC(=O)[C@H](Cc3ccc(-c4ccccc4)cc3)NC(=O)[C@H](C(C)C)NC(=O)[C@H](Cc3c[nH]c4ccccc34)NC(=O)[C@H](CC(=O)O)NC2=O)c1 [Compound 1423] ({CH2CO}-[Dap][Phe(3-OMe)]DWV[Bip]H[NMeA][dL][Dab]LVTCA-NH2; thioether N-14)
2,0.04 µM,CC[C@H](C)[C@@H]1NC(=O)[C@H](Cc2ccc(-c3ccccc3)cc2)NC(=O)[C@H](C(C)C)NC(=O)[C@H](Cc2c[nH]c3ccccc23)NC(=O)[C@H](CC(=O)O)NC(=O)[C@H](Cc2ccc(O)c([N+](=O)[O-])c2)NC(=O)[C@H](CN)NC(=O)CSC[C@@H](C(=O)N[C@@H](C)C(N)=O)NC(=O)[C@H]([C@@H](C)O)NC(=O)[C@H](C(C)C)NC(=O)[C@H](CC(C)C)NC(=O)[C@H](CCN)NC(=O)[C@@H](CC(C)C)NC(=O)[C@H](C)N(C)C1=O [Compound 1409] ({CH2CO}-[Dap][Tyr(3-NO2)]DWV[Bip]I[NMeA][dL][Dab]LVTCA-NH2; thioether N-14)
3,0.02 µM,CC(C)C[C@@H]1NC(=O)[C@H](CCN)NC(=O)[C@@H](CC(C)C)NC(=O)[C@H](C)N(C)C(=O)[C@H]([C@@H](C)O)NC(=O)[C@H](Cc2ccc(-c3ccccc3)cc2)NC(=O)[C@H](C(C)C)NC(=O)[C@H](Cc2c[nH]c3ccccc23)NC(=O)[C@H](CC(=O)O)NC(=O)[C@H](Cc2ccc(O)cc2)NC(=O)[C@H](CC(N)=O)NC(=O)CSC[C@@H](C(=O)N[C@@H](C)C(N)=O)NC(=O)[C@H]([C@@H](C)O)NC(=O)[C@H](C(C)C)NC1=O [Compound 1300] ({CH2CO}-NYDWV[Bip]T[NMeA][dL][Dab]LVTCA-NH2; thioether N-14)
4,0.03 µM,CC(C)C[C@@H]1NC(=O)[C@H](CCN)NC(=O)[C@@H](CC(C)C)NC(=O)[C@@H]2CCCCN2C(=O)[C@H](C(C)C)NC(=O)[C@H](Cc2ccc(-c3ccccc3)cc2)NC(=O)[C@H](C(C)C)NC(=O)[C@H](Cc2c[nH]c3ccccc23)NC(=O)[C@H](CC(=O)O)NC(=O)[C@H](Cc2ccc(O)cc2)NC(=O)[C@H](CC(N)=O)NC(=O)CSC[C@@H](C(=O)N[C@@H](C)C(N)=O)NC(=O)[C@H]([C@@H](C)O)NC(=O)[C@H](C(C)C)NC1=O [Compound 1298] ({CH2CO}-NYDWV[Bip]V[Pip][dL][Dab]LVTCA-NH2; thioether N-14)
